Test results as given in PubChem BioAssay AID1963860 (Molecular Pharmacology Branch, DTP, NCI, 2024).
pIC50: −log10 of the molar value.

Tested on: CN0375-F725-PDC KRAS spheroid viability
Assay: Anticancer human tumor CN0375-F725-PDC patient-derived colon carcinoma cell line growth inhibition [KRAS2]
Settings: spheroids with HUVEC and MSC; for viability, T/C: stronger effect = lower value; active means viability on the fitted dose curve at most 10% of control; inactive means the rest
Summary of the method: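 Combination screen of spheroid viability in tumor-cell co-cultures with endothelial (HUVEC) and mesenchymal stem cell stroma. Each agent was tested in half-log dilutions, topping at clinical Cmax or at 10 microM without a known Cmax.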

[1] = curve of first compound, second compound 0.1 µM
[2] = curve of first compound, second compound 0.316 µM
[3] = curve of first compound, second compound 1 µM
[4] = curve of first compound, second compound 3.16 µM
[5] = curve of first compound, second compound 10 µM
[6] = second compound 0.1 µM, first compound 0.0316 µM
[7] = second compound 0.1 µM, first compound 0.1 µM
[8] = second compound 0.1 µM, first compound 0.316 µM
[9] = second compound 0.1 µM, first compound 1 µM
[10] = second compound 0.1 µM, first compound 3.16 µM
[11] = second compound 0.1 µM, first compound 10 µM
[12] = second compound 0.316 µM, first compound 0.0316 µM
[13] = second compound 0.316 µM, first compound 0.1 µM
[14] = second compound 0.316 µM, first compound 0.316 µM
[15] = second compound 0.316 µM, first compound 1 µM
[16] = second compound 0.316 µM, first compound 3.16 µM
[17] = second compound 0.316 µM, first compound 10 µM
[18] = second compound 1 µM, first compound 0.0316 µM
[19] = second compound 1 µM, first compound 0.1 µM
[20] = second compound 1 µM, first compound 0.316 µM
[21] = second compound 1 µM, first compound 1 µM
[22] = second compound 1 µM, first compound 3.16 µM
[23] = second compound 1 µM, first compound 10 µM
[24] = second compound 3.16 µM, first compound 0.0316 µM
[25] = second compound 3.16 µM, first compound 0.1 µM
[26] = second compound 3.16 µM, first compound 0.316 µM
[27] = second compound 3.16 µM, first compound 1 µM
[28] = second compound 3.16 µM, first compound 3.16 µM
[29] = second compound 3.16 µM, first compound 10 µM
[30] = second compound 10 µM, first compound 0.0316 µM
[31] = second compound 10 µM, first compound 0.1 µM
[32] = second compound 10 µM, first compound 0.316 µM
[33] = second compound 10 µM, first compound 1 µM
[34] = second compound 10 µM, first compound 3.16 µM
[35] = second compound 10 µM, first compound 10 µM
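Further: spheroids exposed to agents for 7 days.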

CCN1CCN(Cc2ccc(Nc3ncc(F)c(-c4cc(F)c5nc(C)n(C(C)C)c5c4)n3)nc2)CC1
inactive: viability, T/C (compound 0.00316 µM) 102% [middle of 5 runs] | viability, T/C (compound 0.01 µM) 95.6% [middle of 5 runs] | viability, T/C (compound 0.0316 µM) 91.2% [middle of 5 runs] | viability, T/C (compound 0.1 µM) 97.8% [middle of 5 runs] | viability, T/C (compound 0.316 µM) 107% [middle of 5 runs] | viability, T/C (compound 1 µM) 101% [middle of 5 runs]
< 6.00: pIC50 (curve of compound)

CC(C)NCC(C(=O)N1CCN(c2ncnc3c2C(C)CC3O)CC1)c1ccc(Cl)cc1 (stereo unspecified)
< 5.00: pIC50 (curve of compound)
inactive: viability, T/C (compound 0.0316 µM) 103% [middle of 5 runs] | viability, T/C (compound 0.1 µM) 102% [middle of 5 runs] | viability, T/C (compound 0.316 µM) 96.5% [middle of 5 runs] | viability, T/C (compound 1 µM) 93.9% [middle of 5 runs] | viability, T/C (compound 3.16 µM) 91.8% [middle of 5 runs] | viability, T/C (compound 10 µM) 76.8% [middle of 5 runs]

CCNC(=O)CC1N=C(c2ccc(Cl)cc2)c2cc(OC)ccc2-n2c(C)nnc21 (stereo unspecified) + C=CC(=O)N1CCN(c2nc(=O)n(-c3c(C)ccnc3C(C)C)c3nc(-c4c(O)cccc4F)c(F)cc23)C(C)C1
< 5.00: pIC50 [1] | pIC50 [2] | pIC50 [3] | pIC50 [4] | pIC50 [5]
inactive: viability, T/C [6] 100% | viability, T/C [7] 95.8% | viability, T/C [8] 88.1% | viability, T/C [9] 86% | viability, T/C [10] 74.7% | viability, T/C [11] 57.4% | viability, T/C [12] 99.9% | viability, T/C [13] 99.5% | viability, T/C [14] 84.5% | viability, T/C [15] 82% | viability, T/C [16] 71.1% | viability, T/C [17] 58% | viability, T/C [18] 104% | viability, T/C [19] 104% | viability, T/C [20] 87.3% | viability, T/C [21] 86.8% | viability, T/C [22] 75.5% | viability, T/C [23] 64.7% | viability, T/C [24] 104% | viability, T/C [25] 94.9% | viability, T/C [26] 88.4% | viability, T/C [27] 85.1% | viability, T/C [28] 67.9% | viability, T/C [29] 59% | viability, T/C [30] 102% | viability, T/C [31] 99% | viability, T/C [32] 84.6% | viability, T/C [33] 71.6% | viability, T/C [34] 73.9% | viability, T/C [35] 60.8%

C=CC(=O)N1CCN(c2nc(=O)n(-c3c(C)ccnc3C(C)C)c3nc(-c4c(O)cccc4F)c(F)cc23)C(C)C1 (stereo unspecified)
inactive: viability, T/C (compound 0.1 µM) 103% [middle of 17 runs] | viability, T/C (compound 0.316 µM) 103% [middle of 17 runs] | viability, T/C (compound 1 µM) 103% [middle of 17 runs] | viability, T/C (compound 3.16 µM) 104% [middle of 17 runs] | viability, T/C (compound 10 µM) 100% [middle of 17 runs]
< 5.00: pIC50 (compound alone, run of 08/19/2021) | pIC50 (compound alone, run of 08/26/2021) | pIC50 (compound alone, run of 09/02/2021)

COc1cc(Nc2ncc3c(n2)-c2ccc(Cl)cc2C(c2c(F)cccc2OC)=NC3)ccc1C(=O)O
inactive: viability, T/C (compound 0.0316 µM) 102% [middle of 5 runs] | viability, T/C (compound 0.1 µM) 101% [middle of 5 runs] | viability, T/C (compound 0.316 µM) 93.7% [middle of 5 runs] | viability, T/C (compound 1 µM) 96.3% [middle of 5 runs] | viability, T/C (compound 3.16 µM) 94.8% [middle of 5 runs] | viability, T/C (compound 10 µM) 78.3% [middle of 5 runs]
< 5.00: pIC50 (curve of compound)

CC(=O)OC12COC1CC(O)C1(C)C(=O)C(O)C3=C(C)C(OC(=O)C(O)C(NC(=O)OC(C)(C)C)c4ccccc4)CC(O)(C(OC(=O)c4ccccc4)C21)C3(C)C (stereo unspecified) + CNCc1ccccc1-c1csc(C(C)Nc2nc(C)nc3cc(OC)c(OC)cc23)c1
> 8.00: pIC50 [4] | pIC50 [5]
< 5.50: pIC50 [1] | pIC50 [2] | pIC50 [3]
active: viability, T/C (second compound 10 µM, first compound 0.01 µM) 0.72% | viability, T/C [30] 0.57% | viability, T/C [31] 0.77% | viability, T/C [32] 0.24% | viability, T/C [33] 0.62% | viability, T/C [34] 0.25%
inactive: viability, T/C (second compound 0.1 µM, first compound 0.01 µM) 96.2% | viability, T/C [6] 97.7% | viability, T/C [7] 80.7% | viability, T/C [8] 82.5% | viability, T/C [9] 80.4% | viability, T/C [10] 74.2% | viability, T/C (second compound 0.316 µM, first compound 0.01 µM) 92.8% | viability, T/C [12] 89.4% | viability, T/C [13] 77.5% | viability, T/C [14] 74.7% | viability, T/C [15] 78.5% | viability, T/C [16] 66.8% | viability, T/C (second compound 1 µM, first compound 0.01 µM) 101% | viability, T/C [18] 99.7% | viability, T/C [19] 91.8% | viability, T/C [20] 84% | viability, T/C [21] 77.4% | viability, T/C [22] 78% | viability, T/C (second compound 3.16 µM, first compound 0.01 µM) 1.13% | viability, T/C [24] 100% | viability, T/C [25] 0.66% | viability, T/C [26] 0.86% | viability, T/C [27] 1.34% | viability, T/C [28] 79.3%

COC(=O)c1ccc2c(C(=Nc3ccc(N(C)C(=O)CN4CCN(C)CC4)cc3)c3ccccc3)c(O)[nH]c2c1 + CNCc1ccccc1-c1csc(C(C)Nc2nc(C)nc3cc(OC)c(OC)cc23)c1
active: viability, T/C [11] 0.35% | viability, T/C [17] 0.2% | viability, T/C [23] 0.24% | viability, T/C [24] 1% | viability, T/C [25] 0.73% | viability, T/C [26] 0.68% | viability, T/C [27] 1.02% | viability, T/C [28] 0.63% | viability, T/C [29] 0.32% | viability, T/C [30] 0.63% | viability, T/C [31] 0.51% | viability, T/C [32] 0.5% | viability, T/C [33] 0.37% | viability, T/C [34] 0.61% | viability, T/C [35] 0.3%
5.49: pIC50 [1]
inactive: viability, T/C [6] 95.2% | viability, T/C [7] 95.4% | viability, T/C [8] 86.6% | viability, T/C [9] 83.5% | viability, T/C [10] 50.3% | viability, T/C [12] 94.7% | viability, T/C [13] 88% | viability, T/C [14] 84.3% | viability, T/C [15] 73.1% | viability, T/C [16] 14.9% | viability, T/C [18] 84.7% | viability, T/C [19] 87.9% | viability, T/C [20] 77.3% | viability, T/C [21] 68% | viability, T/C [22] 65%
> 7.50: pIC50 [4] | pIC50 [5]
5.80: pIC50 [2]
5.42: pIC50 [3]

COc1cc(Nc2ncc3c(n2)-c2ccc(Cl)cc2C(c2c(F)cccc2OC)=NC3)ccc1C(=O)O + C=CC(=O)N1CCN(c2nc(=O)n(-c3c(C)ccnc3C(C)C)c3nc(-c4c(O)cccc4F)c(F)cc23)C(C)C1
inactive: viability, T/C [6] 105% | viability, T/C [7] 95.7% | viability, T/C [8] 89.3% | viability, T/C [9] 96.5% | viability, T/C [10] 95.5% | viability, T/C [11] 80.9% | viability, T/C [12] 107% | viability, T/C [13] 104% | viability, T/C [14] 95% | viability, T/C [15] 96.5% | viability, T/C [16] 97% | viability, T/C [17] 80.5% | viability, T/C [18] 104% | viability, T/C [19] 102% | viability, T/C [20] 97% | viability, T/C [21] 94.5% | viability, T/C [22] 94.6% | viability, T/C [23] 79.4% | viability, T/C [24] 106% | viability, T/C [25] 105% | viability, T/C [26] 97.7% | viability, T/C [27] 94.2% | viability, T/C [28] 93.1% | viability, T/C [29] 85.3% | viability, T/C [30] 105% | viability, T/C [31] 102% | viability, T/C [32] 97.2% | viability, T/C [33] 88.6% | viability, T/C [34] 85.7% | viability, T/C [35] 79.5%
< 5.00: pIC50 [1] | pIC50 [2] | pIC50 [3] | pIC50 [4] | pIC50 [5]

O=C(c1cc(Cc2n[nH]c(=O)c3ccccc23)ccc1F)N1CCN(C(=O)C2CC2)CC1
< 5.00: pIC50 (curve of compound)
inactive: viability, T/C (compound 0.0316 µM) 107% [middle of 5 runs] | viability, T/C (compound 0.1 µM) 106% [middle of 5 runs] | viability, T/C (compound 0.316 µM) 102% [middle of 5 runs] | viability, T/C (compound 1 µM) 107% [middle of 5 runs] | viability, T/C (compound 3.16 µM) 105% [middle of 5 runs] | viability, T/C (compound 10 µM) 96.7% [middle of 5 runs]
